System: 556581-035-R-J1 tumor spheroid viability, % test/control
Experiment: Anticancer human tumor 556581-035-R-J1 patient-derived ovarian carcinoma cell line growth inhibition
Conditions: spheroids with HUVEC and MSC; for IC50: curve of first compound; for viability, T/C: stronger effect = lower value
In short: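 Complex tumor spheroids combined malignant cells with endothelial cells and mesenchymal stem cells. DNA-damaging drugs and DNA repair inhibitors were tested alone and in combination, at half-log dilutions down from clinical Cmax (top 10 microM if Cmax unknown), 0.25% DMSO final.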
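Further: spheroids exposed to compounds for 7 days before viability read.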

Compound: CC(C)n1c(=O)n(C)c2cnc3cc(F)c(-c4ccc(OCCCN5CCCCC5)nc4)cc3c21 + COc1cc2c(cc1O)CCNC21CSC2c3c(OC(C)=O)c(C)c4c(c3C(COC1=O)N1C(O)C3Cc5cc(C)c(OC)c(O)c5C(C21)N3C)OCO4
- IC50 (second compound 30 pM): > 10 µM
- IC50 (second compound 94.9 pM): > 10 µM
- IC50 (second compound 0.0003 µM): > 10 µM
- IC50 (second compound 0.000949 µM): < 0.0316 µM
- IC50 (second compound 0.003 µM): < 0.0316 µM
- viability, T/C (second compound 30 pM, first compound 0.0316 µM): 86.3%
- viability, T/C (second compound 30 pM, first compound 0.1 µM): 97.8%
- viability, T/C (second compound 30 pM, first compound 0.316 µM): 96.5%
- viability, T/C (second compound 30 pM, first compound 1 µM): 91%
- viability, T/C (second compound 30 pM, first compound 3.16 µM): 89.2%
- viability, T/C (second compound 30 pM, first compound 10 µM): 73.7%
- viability, T/C (second compound 94.9 pM, first compound 0.0316 µM): 94.9%
- viability, T/C (second compound 94.9 pM, first compound 0.1 µM): 98%
- viability, T/C (second compound 94.9 pM, first compound 0.316 µM): 95.6%
- viability, T/C (second compound 94.9 pM, first compound 1 µM): 95.6%
- viability, T/C (second compound 94.9 pM, first compound 3.16 µM): 86%
- viability, T/C (second compound 94.9 pM, first compound 10 µM): 66.6%
- viability, T/C (second compound 0.0003 µM, first compound 0.0316 µM): 96.1%
- viability, T/C (second compound 0.0003 µM, first compound 0.1 µM): 96.8%
- viability, T/C (second compound 0.0003 µM, first compound 0.316 µM): 98.8%
- viability, T/C (second compound 0.0003 µM, first compound 1 µM): 97.7%
- viability, T/C (second compound 0.0003 µM, first compound 3.16 µM): 84.4%
- viability, T/C (second compound 0.0003 µM, first compound 10 µM): 62.3%
- viability, T/C (second compound 0.000949 µM, first compound 0.0316 µM): 44.8%
- viability, T/C (second compound 0.000949 µM, first compound 0.1 µM): 35%
- viability, T/C (second compound 0.000949 µM, first compound 0.316 µM): 37.1%
- viability, T/C (second compound 0.000949 µM, first compound 1 µM): 48.5%
- viability, T/C (second compound 0.000949 µM, first compound 3.16 µM): 39.1%
- viability, T/C (second compound 0.000949 µM, first compound 10 µM): 17.6%
- viability, T/C (second compound 0.003 µM, first compound 0.0316 µM): 0.76%
- viability, T/C (second compound 0.003 µM, first compound 0.1 µM): 1.38%
- viability, T/C (second compound 0.003 µM, first compound 0.316 µM): 0.61%
- viability, T/C (second compound 0.003 µM, first compound 1 µM): 0.59%
- viability, T/C (second compound 0.003 µM, first compound 3.16 µM): 0.42%
- viability, T/C (second compound 0.003 µM, first compound 10 µM): 0.65%
